Assay [1] deals with HIV(3b) or HIV(Rf). Put plainly: HIV cell assay (HIV low multiplicity assay, protection of MT-2 cells from virus induced cell death, XTT). Conditions: for Cell Assay IC50: unit not given. It counts as cell-based, Human immunodeficiency virus. On the procedure: […], a human T-cell line, was cultured in RPMI medium supplemented with 5% (v/v) heat inactivated fetal calf serum (FCS), L-glutamine and gentamycin (GIBCO). Human immunodeficiency virus strains HIV(3b) and HIV (Rf) were propagated in H-9 cells in RPMI with 5% FCS. XTT, benzene-sulfonic acid, 3,3'-[1-[(phenylamino)carbonyl]-3,4-tetrazolium]bis(4-methoxy-6-nitro)-, sodium salt, was obtained from Starks Associates, Inc.
Test compounds were dissolved in dimethyl-sulfoxide to 5 mg/ml and serially diluted into RPMI medium to ten times the desired final concentration. MT-2 cells (5×10E4/0.1 ml) were added to each well of a 96 well culture plate and 0.02 ml of the appropriate test compound solution was added to the cells such that each compound concentration was present in two wells. The cells and compounds were allowed to sit for 30 minutes at room temperature. HIV(3b) or HIV(Rf) (~5×10E5 plaque forming units/ml) was diluted in medium and added to the cell and compound mixtures to give a multiplicity of infection of 0.01 plaque forming unit/cell. The mixtures were incubated for 7 days at 36° C., during which time the virus replicated and caused the death of unprotected cells. The percentage of cells protected from virus induced cell death was determined by the degree of metabolism of the tetrazolium dye, XTT. In living cells, XTT was metabolized to a colored formazan product which was quantitated spectrophoto-metrically at […]. The amount of colored formazan was proportional to the number of cells protected from virus by the test compound. The concentration of compound protecting either 50% (IC50) or 90% (IC90) with respect to an uninfected cell culture was determined.

For assay [2], the target named is T1, HIV protease (Human immunodeficiency virus type 1 group M subtype B, UniProt P04585).
T1 construct: inclusion bodies of E. coli harboring plasmid containing HIV protease under the control of the T7 promotor; made in house; host or cells: E. coli (A: crude lysate, lac promotor)
Put plainly: Cell free protease inhibition assay (HIV gag polyprotein cleavage). The settings on record: Table XVII, unit inferred, IC50 per method. It counts as biochemical. The source says:
HIV gag polyprotein corresponding to all of p17 and 78 amino acids of p24, produced by in vitro translation using rabbit reticulocyte lysate and mRNA prepared in vitro from plasmid encoding full length gag polyprotein linerized with the restriction enzyme Pst 1. (See S. Erickson-Viitanen et al., Aids Research and Human Retroviruses, 5 (6), 577 (1989) for plasmid construction, and basis for assay).
Source of protease: Either (A) crude E. coli lysate of bacteria harboring a plasmid containing HIV protease under the control of the lac promotor, used at a final concentration of 0.5 mg/ml, or (B) inclusion bodies of E. coli harboring plasmid containing HIV protease under the control of the T7 promotor (Cheng et al., Gene, in press (1990). Such inclusion bodies were solubilized in 8M urea, 50 mM Tris pH 8.0. Protease activity was recovered by dilution of the inclusion bodies 20-fold in buffer containing 50 mM Sodium Acetate, pH 5.5, 1 mM EDTA, 10% glycerol and 5% ethylene glycol. This protease source was used at a final concentration of 0.00875 mg/ml.
Inhibitory compounds were dissolved in sufficient DMSO to make a 25 mM stock concentration. All further dilutions were done in DMSO.
Into sterile test tubes were placed the following:
14 ul HIV protease in Phosphate Buffered Saline (Gibco)
5 ul of in vitro translation products.
Reactions were incubated at 30° C., then quenched by the addition of Sample buffer. See U. K. Laemmli, Nature, 1970, 227:680-685.
One fourth of each sample was analyzed on an 8-16% gradient denaturing acrylamide gel (Novex, Inc), according to Laemmli. Following electrophoresis, gels were fixed, impregnated with Enhance (Du Pont NEN, Boston, Mass.) and dried according to manufacturers instructions (NEN). Dried fluorographs were exposed to film and/or quantitated using an Ambis radioanalytic scanner.
Each group of test compounds was compared to the values obtained for pepstatin, a well known inhibitor of acid proteases. Inhibitory concentration for 50% inhibition (IC50) is determined from plots of log concentration inhibitor versus % inhibition of protease activity.
Biological Activity: IC50 is the concentration necessary for reducing the activity of the enzyme by 50%.

[3] abbreviates: Human immunodeficiency virus 1, MT2, Table XVII, unit inferred, HIV in MT-2 cells, read-out: Cell Assay IC90.
[4] abbreviates: read-out: Cell Free Assay (converted).
Setting [5] is: Human immunodeficiency virus 1, MT2, Table XVII, unit inferred, HIV in MT-2 cells, read-out: Cell Assay IC50.

Each structure is given as a SMILES string. Values after ≈ are worked out from the molar mass of the structure shown. Where a name gives a salt, the structure may show the parent alone. Read-outs that look alike come from different tables or passages of the source.

23 molecules from patent US5294720A, “1,4-diamino-2,3-dihydroxybutanes” (The DuPont Merck Pharmaceutical Co., priority 1991, dated 1994) can be followed below.

On to `CSCCC(NC(=O)OC(C)(C)C)C(O)C(O)C(CCSC)NC(=O)OC(C)(C)C` (stereo not shown) [Example 1A], for which the IC90 in assay [1] (setting [3]) came out at 6 µg/mL (≈ 12.8 µM). Further, the “Cell Assay IC50” value in assay [1] (Table XVII, HIV in MT-2 cells) turned out to be 2. In assay [2] (setting [4]), the IC50 is 25.6 µM.

Turning to `CSCCC(NC(=O)OC(C)(C)C)C(O)C(O)C(CCSC)NC(=O)OC(C)(C)C` (stereo not shown) [Example 1B], the “Cell Assay IC50” value in assay [1] (Table XVII, HIV in MT-2 cells) worked out at 5. Further, the IC50 in assay [2] (setting [4]) was 78.9 µM.

For the molecule `CC(C)(C)OC(=O)N[C@@H](Cc1ccccc1)[C@H](O)[C@@H](O)[C@H](Cc1ccccc1)NC(=O)OC(C)(C)C` [Example 2A, Bis(1,1-dimethylethyl) (2,3-dihydroxy-1,4-(phenylmethyl)-1,4-butanediyl)biscarbamate (1S,2S,3S,4S)], the IC50 in assay [1] (setting [5]) was 10 µg/mL (≈ 20 µM); in assay [2] (setting [4]), 24 µM. Also, the IC90 in assay [1] (setting [3]) is 30 µg/mL (≈ 59.9 µM).

In the case of `CC(C)(C)OC(=O)N[C@@H](Cc1ccccc1)[C@@H](O)[C@H](O)[C@H](Cc1ccccc1)NC(=O)OC(C)(C)C` [Example 2B], the results for the IC50 in assay [1] (setting [5]) and in assay [2] (setting [4]) were 1.9 µg/mL (≈ 3.8 µM) and 0.34 µM, respectively. Besides, the 90% effect concentration (IC90) in assay [1] (setting [3]) is 3 µg/mL (≈ 5.99 µM).

Take `CC(C)(C)OC(=O)N[C@@H](Cc1ccccc1)[C@H](O)[C@H](O)[C@H](Cc1ccccc1)NC(=O)OC(C)(C)C` [Example 2C, Bis(1,1-dimethylethyl) (2,3-dihydroxy-1,4-(phenylmethyl)-1,4-butanediyl)biscarbamate (1S,2S,3R,4S)]: in assay [2] (setting [4]), the IC50 is 61.9 µM.

Take `CC(C)(C)OC(=O)NCC(O)C(O)CNC(=O)OC(C)(C)C` (stereo not shown) [Example 3, Bis(1,1-dimethylethyl) (2,3-dihydroxy-1,4-butanediyl)biscarbamate]: in assay [2] (setting [4]), the IC50 was 1200 µM.

For the molecule `CC(NC(=O)OC(C)(C)C)C(O)C(O)C(C)NC(=O)OC(C)(C)C` (stereo not shown) [Example 4, Bis(1,1-dimethylethyl) (2,3-dihydroxy-1,4-dimethyl-1,4-butanediyl)biscarbamate], in assay [2] (setting [4]), the IC50 is 1250 µM.

For `CC(C)C(NC(=O)OC(C)(C)C)C(O)C(O)C(NC(=O)OC(C)(C)C)C(C)C` (stereo not shown) [Example 5, Bis(1,1-dimethylethyl) (2,3-dihydroxy-1,4-(1-methylethyl)-1,4-butanediyl)biscarbamate], the IC50 in assay [2] (setting [4]) was 161 µM.

Turning to `CC(C)CC(NC(=O)OC(C)(C)C)C(O)C(O)C(CC(C)C)NC(=O)OC(C)(C)C` (stereo not shown) [Example 6, Bis(1,1-dimethylethyl) (2,3-dihydroxy-1,4-(2-methylpropyl)-1,4-butanediyl)biscarbamate], in assay [2] (setting [4]), the IC50 was 11.1 µM.

`CC(C)(C)OC(=O)N1CCCC1C(O)C(O)C1CCCN1C(=O)OC(C)(C)C` (stereo not shown) [Example 7, Bis(1,1-dimethylethyl) 2,2'-(1,2-dihydroxy-1,2-ethanediyl)-1-bis(pyrrolidinecarboxylate)]: in assay [2] (setting [4]), the IC50 was 1250 µM.

Consider `CC(C)(C)OC(=O)NC(c1ccccc1)C(O)C(O)C(NC(=O)OC(C)(C)C)c1ccccc1` (stereo not shown) [Example 8, Bis (1,1-dimethylethyl) (2,3-dihydroxy-1,4-diphenyl-1,4-butanediyl)biscarbamate], for which the IC50 in assay [2] (setting [4]) is 1250 µM.

As for `O=C(NC(Cc1ccccc1)C(O)C(O)C(Cc1ccccc1)NC(=O)OCc1ccccc1)OCc1ccccc1` (stereo not shown) [Example 9], the IC50 in assay [2] (setting [4]) was 0.914 µM.

For the molecule `CC(C)(C)OC(=O)NC(CCc1ccccc1)C(O)C(O)C(CCc1ccccc1)NC(=O)OC(C)(C)C` (stereo not shown) [Example 10, Bis(1,1-dimethylethyl) (2,3-dihydroxy-1,4-(2-phenylmethyl)-1,4-butanediyl)biscarbamate], the IC50 in assay [2] (setting [4]) is 1130 µM.

On to `CC(C)(C)OC(=O)NC(Cc1ccc(F)cc1)C(O)C(O)C(Cc1ccc(F)cc1)NC(=O)OC(C)(C)C` (stereo not shown) [Example 11], for which the IC50 in assay [2] (setting [4]) was 37.3 µM.

Take `CC(C)(C)OC(=O)NC(Cc1ccc(I)cc1)C(O)C(O)C(Cc1ccc(I)cc1)NC(=O)OC(C)(C)C` (stereo not shown) [Example 12]: the IC50 in assay [2] (setting [4]) was 5.45 µM.

Consider `CC(C)(C)OC(=O)NC(Cc1ccc(O)cc1)C(O)C(O)C(Cc1ccc(O)cc1)NC(=O)OC(C)(C)C` (stereo not shown) [Example 13, Bis(1,1-dimethylethyl) (2,3-dihydroxy-1,4-(4-hydroxyphenyl)methyl-1,4-butaneidyl)biscarbamate], for which the IC50 in assay [1] (setting [5]) is 2.3 µg/mL (≈ 4.32 µM); in assay [2] (setting [4]), 6.2 µM. Besides, the 90% effect concentration (IC90) in assay [1] (setting [3]) stood at 25 µg/mL (≈ 46.9 µM).

Take `CC(=O)N[C@@H](Cc1ccccc1)[C@@H](O)[C@H](O)[C@H](Cc1ccccc1)NC(C)=O` [Example 14, N,N'-((2,3-dihydroxy-1,4-(phenylmethyl)-1,4-butanediyl))bisacetamide]: the IC50 in assay [2] (setting [4]) is 1250 µM.

Turning to `N[C@@H](Cc1ccccc1)[C@H](O)[C@@H](O)[C@@H](N)Cc1ccccc1` [Example 15, 2,5-Diamino-1,6-diphenyl-3,4-hexanediol dihydrochloride], the IC50 in assay [2] (setting [4]) was 866 µM.

Consider `N[C@@H](Cc1ccccc1)[C@@H](O)[C@H](O)[C@@H](N)Cc1ccccc1` [Example 16, 2,5-Diamino-1,6-diphenyl-3,4-hexanediol dihydrochloride], for which the IC50 in assay [2] (setting [4]) is 866 µM.

As for `CC(N)C(O)C(O)C(C)N` (stereo not shown) [Example 17, 2,5-Diamino-3,4-hexanediol dihydrochloride], the IC50 in assay [2] (setting [4]) was 1260 µM.

Consider `CC(NC(=O)C(NC(=O)OC(C)(C)C)C(C)O)C(=O)NC(C(=O)NC(C)C(=O)NC(Cc1ccccc1)C(O)C(O)C(Cc1ccccc1)NC(=O)C(C)NC(=O)C(NC(=O)C(C)NC(=O)C(NC(=O)OC(C)(C)C)C(C)O)C(C)O)C(C)O` (stereo not drawn) [Example 18, Bis(Boc-Thr-Ala-Thr-Ala), N,N'((2,3-dihydroxy-1,4-(phenylmethyl)-1,4-butanediyl))biscarbamate], for which the IC50 in assay [1] (Human immunodeficiency virus 1, MT2, read-out: Cell Assay IC50) was 6 µg/mL (≈ 5.04 µM); in assay [2] (read-out: Cell Free Assay), 1.93 µM. For the same molecule, the IC90 in assay [1] (Human immunodeficiency virus 1, MT2, read-out: Cell Assay IC90) is 12 µg/mL (≈ 10.1 µM).

Take `CC[C@H](C)[C@H](NC(=O)Cc1ccccn1)C(=O)N[C@@H](Cc1ccccc1)[C@@H](O)[C@H](O)[C@H](Cc1ccccc1)NC(=O)[C@@H](NC(=O)Cc1ccccn1)[C@@H](C)CC` [Example 20, 2,5-(N-2-Pyridylacetyl-L-Ile)diamino-1,6-diphenyl-3,4-hexanediol]: the figures for the IC50 in assay [1] (setting [5]) and in assay [2] (setting [4]) were < 1 µg/mL and 0.0131 µM, respectively. The 90% effect concentration (IC90) in assay [1] (setting [3]) was < 1 µg/mL.

With `CCC(C)C(NC(=O)Cc1ccccn1)C(=O)NC(Cc1ccccc1)C(O)C(O)C(Cc1ccccc1)NC(=O)C(NC(=O)Cc1ccccn1)C(C)CC` [Example 21, 2,5-(N-2-Pyridyl-L-Ile,N'-2-pyridyl-D-Ile)diamino-1,6-diphenyl-3,4-hexanediol], the results for the IC50 in assay [1] (setting [5]) and in assay [2] (setting [4]) were 6 µg/mL (≈ 7.84 µM) and 0.00261 µM, respectively.
